According to publication PMC1618416, “The Liganding of Glycolipid Transfer Protein Is Controlled by Glycolipid Acyl Structure” (PLoS Biology, 2006):

Tests used:
Type in all cases: binding
[1] = molecular target: T1, glycolipid transfer protein (GLTP) (Homo sapiens, UniProt Q9NZD2); assay: X-ray crystal structure; tryptophan fluorescence Kd; set-up: recombinant human GLTP, His6- and S-tags removed by Factor Xa
T1 sequence (Q9NZD2 2-209): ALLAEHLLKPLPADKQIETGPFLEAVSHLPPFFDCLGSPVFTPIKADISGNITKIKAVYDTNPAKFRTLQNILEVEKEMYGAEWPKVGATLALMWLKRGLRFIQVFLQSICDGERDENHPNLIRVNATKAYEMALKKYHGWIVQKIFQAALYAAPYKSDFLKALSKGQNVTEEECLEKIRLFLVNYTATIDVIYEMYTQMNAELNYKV

[2] = molecular target: T1, glycolipid transfer protein (GLTP); assay: tryptophan fluorescence Kd (crystal structure 1SX6 from earlier paper); set-up: recombinant human GLTP
[3] = molecular target: T1, glycolipid transfer protein (GLTP); assay: X-ray crystal structure ([…] Å); tryptophan fluorescence Kd; set-up: recombinant human GLTP, His6- and S-tags removed by Factor Xa
[4] = molecular target: T1, glycolipid transfer protein (GLTP); assay: X-ray crystal structure; set-up: recombinant human GLTP, His6- and S-tags removed by Factor Xa

SMILES: CCCCCCCCCCCCC/C=C/[C@@H](O)[C@H](CO[C@@H]1O[C@H](CO)[C@@H](O[C@@H]2O[C@H](CO)[C@H](O)[C@H](O)[C@H]2O)[C@H](O)[C@H]1O)NC(=O)CCCCCCC [8:0 LacCer, N-octanoyl lactosylsphingosine]
- Kd [1]: 200 nM

SMILES: CCCCCCCC/C=C\CCCCCCCC(=O)N[C@@H](CO[C@@H]1O[C@H](CO)[C@@H](O[C@@H]2O[C@H](CO)[C@H](O)[C@H](O)[C@H]2O)[C@H](O)[C@H]1O)[C@H](O)/C=C/CCCCCCCCCCCCC [18:1 LacCer, N-cis-9-octadecenoyl lactosylsphingosine]
- Kd [2]: 270 nM

SMILES: CCCCC/C=C\C/C=C\CCCCCCCC(=O)N[C@@H](CO[C@@H]1O[C@H](CO)[C@H](O)[C@H](O)[C@H]1O)[C@H](O)/C=C/CCCCCCCCCCCCC [18:2 GalCer, N-cis-N-cis-9,12-octadecenoyl galactosyl-sphingosine]
- Kd [1]: 200 nM

SMILES: CCCCCCCC/C=C\CCCCCCCCCCCCCC(=O)N[C@@H](CO[C@@H]1O[C@H](CO)[C@H](O)[C@H](O)[C@H]1O)[C@H](O)/C=C/CCCCCCCCCCCCC [24:1 GalCer, N-cis-15-tetracosenoyl galactosyl-sphingosine]
- Kd [3]: 250 nM

SMILES: CCCCCCO[C@@H]1O[C@H](CO)[C@@H](O)[C@H](O)[C@H]1O [n-hexyl-β-D-glucoside]
- X-ray crystal structure [4]: The sugar headgroup of n-hexyl-β-D-glucoside binds the GLTP recognition center in a manner similar to all GSL-GLTP complexes
